Measured values published in patent US9585885B2, “Substituted pyrido[2,3-g]quinazolines as dopamine D2 receptor agonists” (KISSEI PHARMACEUTICAL CO., LTD., priority 2012, dated 2017).

How the values were obtained:
[1] = biological target: T1, human dopamine D2 receptor (Homo sapiens, UniProt P14416); assay: Stimulating activities of human dopamine D2 receptor, [35S]GTPγS binding to hD2R#7 (HEK293) membrane homogenates; assay type: biochemical; conditions: [35S]GTPγS binding, membrane homogenates, mean value (n=2); read-out: EC50
T1 construct: expressed in transfected cells
T1 sequence (P14416 whole entry): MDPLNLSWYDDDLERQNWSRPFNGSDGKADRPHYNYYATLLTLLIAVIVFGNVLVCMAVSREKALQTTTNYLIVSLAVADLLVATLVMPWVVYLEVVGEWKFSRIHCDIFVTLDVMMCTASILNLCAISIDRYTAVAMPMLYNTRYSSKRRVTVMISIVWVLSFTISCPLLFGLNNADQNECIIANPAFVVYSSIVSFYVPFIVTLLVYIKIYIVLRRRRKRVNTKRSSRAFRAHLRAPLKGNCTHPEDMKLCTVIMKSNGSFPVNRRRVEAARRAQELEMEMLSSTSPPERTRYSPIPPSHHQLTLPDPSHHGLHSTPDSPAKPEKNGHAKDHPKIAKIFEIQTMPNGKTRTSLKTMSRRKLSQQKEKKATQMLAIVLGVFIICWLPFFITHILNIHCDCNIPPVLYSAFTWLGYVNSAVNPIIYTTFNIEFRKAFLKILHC
Procedure: Identification Test of Stimulating Activities on Human Dopamine D2 Receptor
The cells, which were grown to confluence in 150 mm dishes (IWAKI), were harvested with isotonic buffer (50 mM Tris (Sigma), 2 mM ethylenediamine-tetraacetic acid (Invitrogen), and 125 mM sodium chloride (Wako Pure Chemicals), pH 7.4) and centrifuged at 1880×g and 4° C. for 10 minutes, and the cell pellets were then suspended in isotonic buffer. After being subjected to one cycle of freezing and thawing, the cells were centrifuged at 1880×g and 4° C. for 10 minutes, and the cell pellets were suspended in isotonic buffer. The cells were centrifuged at 1880×g and 4° C. for 10 minutes, and the cell pellets were suspended in isotonic buffer and homogenate buffer (10 mM sodium bicarbonate (Nacalai) and 5 mM ethylenediamine-tetraacetic acid, pH 7.5). The volume ratio of isotonic-to-homogenate buffer was 2. The cells were sonicated and centrifuged at 1880×g and 4° C. for 10 minutes, and the supernatants were ultracentrifuged at 80000×g and 4° C. for 30 minutes. The final cell pellets were suspended in homogenate buffer containing protease inhibitor cocktail (Nacalai) and stored at −80° C. until use. The protein concentration was determined using BCA Protein Assay Kit (Pierce) in accordance with the manufacturer's instructions.
The stimulating activities of human dopamine D2 receptor was determined by measuring the binding potential of [^35S]-guanosine 5′-[gamma-thio]triphosphate ([^35S]GTPγS, PerkinElmer) according to the method described by Newman-Tancredi A. et al. (Naunyn-Schmiedeberg's Arch Pharmacol, 1999, vol. 359, pp. 447-453) with a minor modification. Test compounds and dopamine hydrochloride (Fluka) as positive control were dissolved in dimethyl sulfoxide (CARLBIOCHEM), resulting in 30 mM. The both compounds were diluted with assay buffer (50 mM Tris, 100 mM sodium chloride, 5 mM magnesium chloride (Nacalai), 1 mM ethylenediamine-tetraacetic acid, 1 mM dithiothreitol (Wako Pure Chemicals), 10 μM guanosine diphosphate (Wako Pure Chemicals) and 0.5% bovine serum albumin (Sigma), pH 7.4) to a final concentration of 100 pM (only test compounds), 1 nM, 10 nM, 100 nM, 1 μM, 10 μM and 100 μM (only dopamine hydrochloride). The above membrane homogenates and [^35S]GTPγS were diluted with assay buffer to a final concentration of 0.06 mg/mL and 0.6 nM, respectively. The serial diluted compounds (50 μL), the diluted membrane homogenates (50 μL) and the diluted [^35S]GTPγS (50 μL) were mixed on multi-screen 96-well plate (Millipore) and shaken lightly at room temperature for 60 minutes. The reaction was terminated by vacuum filtration with three times washes of ice-cold wash buffer (50 mM Tris, 100 mM sodium chloride, 5 mM magnesium chloride, and 1 mM ethylenediamine-tetraacetic acid, pH 7.4). After drying the bottoms of the plate at 60° C., MicroScinti-40 (PerkinElmer) (30 μL) was added in the plate. The tops of the plate were sealed by TopSeal-A (PerkinElmer), and the radioactivity was determined in a TopCount NXT (registered mark)(PerkinElmer) after shaking lightly for 5-10 minutes. The data was analyzed by nonlinear regression and sigmoidal dose-response curve fitting using GraphPad PRISM 4.0 (GraphPad Software), and values of EC50 (concentration of the compound producing half the maximal effect of the compound) were calculated. The data was presented as mean value (n=2).

[2] = biological target: T2, human serotonin 5-HT2B receptor (Homo sapiens, UniProt P41595); assay: Stimulating activities of human serotonin 5-HT2B receptor, intracellular calcium in forced expression HEK293 cells; assay type: cell-based; conditions: intracellular calcium concentration, mean value (n=2)
T2 construct: expressed in transfected cells; host or cells: HEK293 (transient transfection)
T2 sequence (P41595 whole entry): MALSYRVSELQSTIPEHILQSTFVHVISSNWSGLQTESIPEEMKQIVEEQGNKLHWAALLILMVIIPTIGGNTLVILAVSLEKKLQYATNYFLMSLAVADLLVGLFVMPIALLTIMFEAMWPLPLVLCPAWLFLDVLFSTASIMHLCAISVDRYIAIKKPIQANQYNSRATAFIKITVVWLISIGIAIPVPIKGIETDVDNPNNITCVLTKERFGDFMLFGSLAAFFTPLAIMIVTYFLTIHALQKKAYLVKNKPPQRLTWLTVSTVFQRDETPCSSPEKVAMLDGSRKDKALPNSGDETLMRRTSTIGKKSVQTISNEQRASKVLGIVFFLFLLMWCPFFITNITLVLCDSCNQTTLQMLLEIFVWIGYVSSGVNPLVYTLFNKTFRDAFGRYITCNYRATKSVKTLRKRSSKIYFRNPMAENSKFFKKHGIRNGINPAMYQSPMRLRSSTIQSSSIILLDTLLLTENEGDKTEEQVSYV
Procedure: Identification Test of Stimulating Activities on Human Serotonin 5-HT2B Receptor
Mostly confluent HEK293 cells were washed with PBS, followed by exfoliation with 0.05% trypsin-EDTA and the cells were suspended in D-MEM liquid medium (phenol red-free, low glucose, pyruvic acid were contained) containing fetal bovine serum (final concentration: 10%) and GlutaMax (registered mark) I (final concentration: 2 mM). The suspension was scattered at 5×10^4 cells/100 μL/well on poly-D-lysine-coated 96-well microplate (BD BioCoat (registered mark)). The scattered cells were cultured in 5% CO2 incubator at 37° C. Human serotonin 5-HT2B receptor expression plasmid was transfected in that cells according to the procedure seeing below.
Human serotonin 5-HT2B receptor expression plasmid and Lipofectamine (registered mark) 2000 (Invitrogen) were diluted to 0.008 g/L and 0.016 g/L each other with OPTI-MEM (registered mark) I Reduced-Serum Medium and incubated at room temperature. After incubation, the human serotonin 5-HT2B receptor expression plasmid-diluted liquid and Lipofectamine (registered mark) 2000-diluted liquid were mixed at an equal volume and incubated at room temperature to form a complex. The complex was dispensed at 50 μL/well on the cells prepared above. The cells were incubated in 5% CO2 incubator at 37° C. for 2 days. After incubation, the cells were used as human serotonin 5-HT2B receptor forced expression cells for measurement of intracellular calcium concentration.
The stimulating activities of human serotonin 5-HT2B receptor was determined by measuring of intracellular calcium concentration. The 30 mM dimethyl sulfoxide (DMSO) solution contained test compounds or serotonin hydrochloride (Sigma) as positive control, was diluted with assay buffer ((HBSS), 20 mM HEPES, 1.3 mM calcium chloride, 0.5 mM magnesium chloride and 0.4 mM magnesium sulfate were contained, pH7.4) to appropriate concentration.
The forced expression cells were washed with assay buffer, and 100 μL/well of fluorescent calcium indicator (Fluo-4 NW Calcium Assay Kit) was added and incubated in 5% CO2 incubator at 37° C. After incubation, 50 μL/well of each test compound was added, and the concentration of intracellular calcium was measured as fluorescent signal with FlexStation (registered mark) II (Molecular Devices). The data was analyzed by nonlinear regression and sigmoidal dose-response curve fitting using GraphPad PRISM 4.0, and values of EC50 (concentration of the compound producing half the maximal effect of the compound) were calculated. The data was presented as mean value (n=2).

[3] = system: unilateral 6-hydroxydopamine-lesioned hemi-Parkisonian rats; assay: Contralateral rotational behavior in unilateral 6-hydroxydopamine-lesioned hemi-parkinsonian rats; assay type: in vivo, rat; conditions: orally 10 mg/kg, mean value; for Total number of rotations: contralateral rotations up to 24 hours after administration; for Duration: measured up to 24 hours after administration, duration of rotational response
Procedure: 6-OHDA was dissolved at 2 mg/mL in a physiolosical saline solution containing 0.2% L-ascorbic acid. Desipramine was dissolved at 10 mg/mL in a physiolosical saline solution in a hot-water bath. Apomorphine was dissolved at 0.1 mg/mL in a physiolosical saline solution. Ropinirole was dissolved in distilled water. Test compounds were dissolved in a solution containing 2% DMA, 100 or 200 mol % hydrochloric acid, and 98% of a 0.5% methyl cellulose solution. […] (Eur J Pharmacol, 2000, vol. 408, P. 249-255) with a minor modification. Male Sprague-Dawley rats (6-weeks-old, Charles River Laboratories Japan Inc.) were anaesthetized with intraperitoneal somnopentyl (45 mg/kg) injection and placed in a stereotaxic frame (Narishige). In order to prevent 6-OHDA-induced damage of noradrenergic neurons, desipramine (25 mg/kg) was intraperitoneally injected 30 minutes before the 6-OHDA injection. After the bregma identification via a middle calvarial incision, the skull was drilled using a dental drill at the site of 6-OHDA injection. The lesion was made by injecting 6-OHDA (8 μg in 4 μL at a speed of 1 μL/minute) unilaterally into the left medial forebrain bundle by using a injection cannula (30 gauge needle) connected to a microsyringe (Hamilton) (the lesion coordinates; A/P −2.5 mm, L/M −1.8 mm, and V/D −8.0 mm, from the bregma point and surface of the skull). The cannula was carefully removed from the animal after keeping placed on the lesion site for 5 minutes. The skull was filled its hole with dental cement, disinfected, and the scalp incision was surgically sutured. Animals recovered from anesthesia were housed as usual until the day of the experiment. Three weeks after the lesion, rats were tested on the basis of their contralateral rotational behavior (single rotation was defined as a 360° turn) in response to 0.1 mg/kg apomorphine given subcutaneously. For behavioral observation, rats were placed in plastic cylinders of a diameter of 30 cm, and its contralateral rotational behaviors were videotaped and quantified by rat-rotation auto counting system R-RACS (Kissei Wellcom). On the experimental day, animals were fasted overnight, and test compounds were orally administrated at doses of 10 mg/kg. The drug potency was measured until up to 24 hours after administration as the number of contralateral rotation. […] Total number of rotations and the duration of the response in experimental period were presented as mean value. As comparative example, ropinirole as non-ergot dopamine D2 receptor agonist, was examined in a similar fashion.

| SMILES | EC50 [1] [nM] | EC50 [2] [nM] | Total number of rotations [3] | Duration [3] [minuets] |
| --- | --- | --- | --- | --- |
| CCCN(CCN(C)C)C(=O)N[C@H]1C[C@@H]2Cc3nc(N)ncc3C[C@H]2N(CCC)C1 [Compound 1-2, 3-[(5aR,8S,9aR)-2-amino-6-propyl-5,5a,6,7,8,9,9a,10-octahydropyrido[2,3-g]quinazolin-8-yl]-1-[2-(dimethylamino)ethyl]-1-propylurea] | 252 | > 10000 | 2580.0 | 307.5 |
| CCCN1C[C@@H](NC(=O)N(C)CCN(CC)CC)C[C@@H]2Cc3nc(N)ncc3C[C@H]21 [Compound 1-4, 3-[(5aR,8S,9aR)-2-amino-6-propyl-5,5a,6,7,8,9,9a,10-octahydropyrido[2,3-g]quinazolin-8-yl]-1-[2-(diethylamino)ethyl]-1-methylurea] | 111 | > 10000 | 3975.0 | 538.8 |
